US20260335388A1, “COMBINATION THERAPIES WITH ONCOLYTIC ADENOVIRUS AND TOPOISOMERASE I INHIBITORS OR PRODRUGS THEREOF” (priority 2022, published 2026)

Experiments:
Y79 tumors = assay type: in vivo, mouse; conditions: systemic drug after intratumoral VCN-01 3×10E^9 vp/tumor; 5 or 15 days (FIGS. 2A-B)
[1] = test system: HSJD-ES-033 Ewing sarcoma; test: Antitumor activity in Ewing sarcoma PDX HSJD-ES-033; assay type: in vivo, mouse; conditions: single treatment (FIG. 24E,G)
Procedure: Patient-derived xenograft (PDX) of Ewing sarcoma (pediatric solid tumor) were implanted subcutaneously into athymic nude mice. Tumor model was HSJD-ES-033. Upon engraftment (tumor volumes ranging 100-500 mm^3), combination treatment in which topotecan was administered systemically (intraperitoneal) at a concentration of 0.6 mg/kg/day, on Days 1, 2, 3, 4 and 5, and a single dose of 3×10^9 vp/tumor VCN-01 was administered intratumorally on Day 1, was compared to either of the treatments alone.
Antitumor activity in extracranial pediatric solid tumors. 5-10 mm^3 fresh fragments of Ewing sarcoma or neuroblastoma PDX were implanted in both flanks of mice. Upon s.c. engraftment (tumor volume 150-200 mm^3), mice received topotecan (0.6 mg/kg, i.p., days 1-5), VCN-01 (3×10^9 vp in 20 µL vehicle, intratumoral, day 1), or the combination. In two additional groups, an alternative topoisomerase 1 inhibitor, irinotecan (10 mg/kg, i.p., on days 1-5) we used in place of topotecan. Upon completion of treatments, tumor volumes were followed until endpoint (1500 mm^3), or until day 80.

[2] = test system: E1A, E1B, E2F-1, p53 and cPARP; test: Expression of viral genes and proteins by treatment sequence, Y79 cells; assay type: cell-based
Procedure: The expression of viral genes E1A and E1B was studied in 6-well culture plates containing 2×10^6 retinoblastoma cells. […] The experiments were controlled by adding culture medium instead of topotecan. […] Real time quantitative polymerase chain reactions (RT-qPCR) were carried out to analyze gene expression using SYBR technology (Thermo Fisher Scientific).
In all experiments, 6-well culture plates containing 2×10^6 cells were used. […] The experiments were controlled by adding culture medium instead of the second treatment. […] The analyses were expanded to other chemotherapeutic agents including hydroxyurea ([…]), etoposide (2 μM), irinotecan (10 μM) or SN-38 (1 μM).
Near-infrared labeled secondary antibodies (Odyssey CLx, LI-COR Inc. Bad Homburg, Germany) were used for detection.

Y79 cells = test: Cell cycle of retinoblastoma cells (propidium iodide cytometry); assay type: cell-based
Procedure: Then, the cells were collected and fixed in 70% ethanol for 2 h. The propidium iodide (PI)-based assay FxCycle™ PI/RNase (Thermo Fisher Scientific) was used as staining solution prior to quantification by flow cytometry (NovoCyte).

CDK6 = test: Cell cycle gene expression array, CDK6; assay type: cell-based, human; conditions: RBT-7 cells pre-infected with VCN-01; topotecan 2 μM (FIG. 17F)
Procedure: To assess the expression of genes involved in the cell cycle, 6-well culture plates containing 2×10^6 retinoblastoma cells were used. VCN-01 was added at 50 MOI for 48 h, followed by the addition of topotecan (2 μM), […] (12.5 μM) or culture medium. The cell pellets were collected 24 h later. The samples were plated in the TaqMan® Array of Human Cyclins & Cell Cycle Regulation (Thermo Fisher Scientific). This array contains 92 assays of cell cycle-associated genes and assays of GAPDH, 18S, HPRT1 and GUSB as endogenous control genes. the threshold cycle (Ct) value ≥35 was established as absence of expression. The mean expression value of the controls was used to normalize gene expression values. The thresholds for upregulation and downregulation were 2^−ΔΔCt≥2.0 and 2^−ΔΔct≤0.5, respectively (Livak and Schmittgen, “Analysis of relative gene expression data using real-time quantitative PCR and the 2 (−Delta Delta C(T)) Method,” Methods 2001; 25(4):402-8).
SYBR primers were CDKN1A (Forward 5′-GGACAGGAGAGGAAGACCATGT-3′ (SEQ ID NO: 15), Reverse 5′-TGGAGTGGTAGAATTCTGTCATGC-3′ (SEQ ID NO: 16) and CDK6 (Forward 5′-CCAGGCAGGCTTTTCATTCA-3′ (SEQ ID NO: 17), Reverse 5′-AGGTCCTGGAAGTATGGGTG-3′ (SEQ ID NO: 18).

[3] = test system: Y79 cells and primary retinoblastoma cultures; assay type: cell-based
[4] = test system: recombinant hyaluronidase PH20 (SPAM1 gene); test: mRNA expression of recombinant hyaluronidase PH20 (SPAM1) in s.c. retinoblastomas; assay type: in vivo, mouse; conditions: 5 days, compared to […] (FIG. 18H)
Procedure: To quantify the recombinant PH20 hyaluronidase gene (SPAM1) in cultures and mouse tissues, the SYBR primer: Forward 5′-TACACACTCCTTGCTCCTGG-3′ (SEQ ID NO: 19), Reverse: 5′-CTTAGTCTCACAGAGGCCAC-3′ (SEQ ID NO: 20) (Bazan-Peregrino et al., “VCN-01 disrupts pancreatic cancer stroma and exerts antitumor effects,” Journal for ImmunoTherapy of Cancer 2021; 9(11):e003254) was used.
To establish s.c. tumors, 10^6 retinoblastoma cells suspended in 25 µL matrigel (Corning, Glendale, AZ, USA) were injected in athymic nude mice. Upon xenograft engraftment (tumor volumes ranging 100-200 mm^3), treatments were started. Mice received VCN-01 (3×10^9 vp in 20 µL vehicle, single intratumoral injection at day 1), alone or combined with one cycle of topotecan (0.6 mg/kg, intraperitoneal -i.p.-, daily at days 1-5), […] (40 mg/kg, i.p, one single dose at day 1), or hydroxyurea (200 mg/kg, i.p., daily at days 1-5). A group of mice received one intratumoral injection of the vehicle of VCN-01 (20 mM pH 8.0 tris buffer, 25 mM NaCl and 2.5% glycerol). Mice were sacrificed at 5 and 15 days after VCN-01 inoculation, the tumors were dissected and tumor homogenates were prepared by adding 10 μL of water per mg of tissue and homogenizing with a Bullet Blender turbine Storm 24 (Quasar instruments, Colorado Springs, CO, USA). In tumor homogenates, genome copies of VCN-01 were quantified. […]

[5] = topotecan pretreatment before VCN-01 (FIG. 13E)

Structure (SMILES): CC[C@@]1(O)C(=O)OCc2c1cc1n(c2=O)Cc2cc3c(CN(C)C)c(O)ccc3nc2-1 [Topotecan, topotecan]
- VCN-01 genome content in tumors (Y79 tumors): increases VCN-01 genome content
- response of xenograft to single treatment [1]: highly resistant
- E1A expression, VCN-01 first ([2]; topotecan addition after the virus (FIG. 13E,F)): up to two orders of magnitude
- E1B expression, VCN-01 first ([2]; topotecan addition after the virus (FIG. 13G)): up to two orders of magnitude
- E2F-1 level, topotecan first [2, 5]: accumulation of E2F-1
- p53 and cPARP expression, topotecan first [2, 5]: increased expression of proapoptotic proteins p53 and cPARP
- E1A expression (protein and gene), topotecan first ([2]; topotecan pretreatment before VCN-01 (FIG. 13E,F)): low expression of E1A (protein and gene)
- percentage of cells in S-phase (Y79 cells; 24 h (FIG. 17A)): increased the percentage of cells in S-phase
- duration of S-phase effect (Y79 cells; topotecan 2 μM (FIG. 17B,C)): at least 48 h
- decrease in expression of CDK6 (CDK6): 15 fold
- transgene expression, virus first ([3]; cells pre-infected with AdTLRGDK (FIG. 18E, FIG. 19A)): increased transgene expression
- viral transduction, drug first ([3]; drug exposure before viral infection (FIG. 18E)): did not enhance viral transduction
- expression of recombinant hyaluronidase [4]: higher expression of recombinant hyaluronidase
